Key:
[1] = test system: HeLa; assay: AnnexinV/7-AAD staining; assay type: cell-based, human; details: 10 µM, 24 h treatment
Method: (§1) Adherent cells (1 - 2*10^5) are 24 h prior to compound treatment seeded into 24 well tissue culture plates. Suspension cells are pipetted into P-tubes immediately before treatment. Test compounds are added leading to a final concentrations of 10 µM. After 24 h treatment cells are harvested (in case of adherent cells by trypsinization) and transferred to FACS tubes (BD Biosciences). After centrifugation and removal of the supernatant, 100 µl complete medium containing AnnexinV-GST (10 µg) is added, mixed and incubated at 4°C for 30 minutes. Subsequently, the cells are washed once with medium and incubated with 100 µl anti-GST Alexa 488 (Molecular Probes A-11131) in medium diluted 1:500 for 30 minutes at 4°C. Then, cells are washed once and stained with 1 µg/ml 7-aminoactinomycin D (7-AAD) (Molecular Probes A-1310) in 250 µl medium and analyzed on the FACSCalibur™. AnnexinV is measured in FL1 whereas 7-AAD is measured in FL3. In Table 5 the percentage of positively stained cells after treatment with the respective compounds are indicated. The following scores are used: Score 0 relates to less than 10%, score 1 relates to more than 10% but less than 50% and score 2 relates to more than 50% positivity.

[2] = test system: Jurkat; assay: AnnexinV/7-AAD staining; assay type: cell-based, human; details: 10 µM, 24 h treatment
Method: as §1

[3] = test system: Ramos; assay: AnnexinV/7-AAD staining; assay type: cell-based, human; details: 10 µM, 24 h treatment
Method: as §1

[4] = test system: A20; assay: AnnexinV/7-AAD staining; assay type: cell-based, mouse; details: A20, 10 µM, 24 h treatment
Method: as §1

[5] = test system: HeLa; assay: Hoechst 33342 nuclear staining (Table 3); assay type: cell-based, human; set-up: key: 0 relating to no activity; 1 relating to weak activity comprising less than 50% of the cells; score 2 relating to strong activity comprising more than 50% of the cells
Method: (§2) This assay is performed in 96 well tissue culture plates. Appropriate number of cells (adherent cells: 3 - 5*10^3, suspension cells: 8 - 10*10^3) are being seeded out in 80 µl complete medium. Adherent cells are incubated for 24 h for proper spreading out before addition of test compounds while suspension cells are immediately treated with test compounds after seeding out. The test compounds are added in 20 µl complete medium containing max 5% DMSO. The final compound concentrations in the assays are 10 µM, 3 µM,1 µM and 0.3 µM, respectively. After 24 h or 48 h incubation at culture conditions, 10 µl medium containing Hoechst 33342 dye (Sigma B-2261) at 2-5 µg/ml are added to each well. The assay plates are then further incubated for 30 minutes and subsequently analyzed with a standard inverted fluorescence microscope. The readout allows the determination of the fraction of apoptotic nuclei as well as other morphological criteria specific for apoptosis as a function of the treatment. The following scores are used: 0 relating to no activity, 1 relating to weak activity comprising less than 50% of the cells and score 2 relating to strong activity comprising more than 50% of the cells.

[6] = test system: KB; assay: Hoechst 33342 nuclear staining (Table 3); assay type: cell-based, human; set-up: key: 0 relating to no activity; 1 relating to weak activity comprising less than 50% of the cells; score 2 relating to strong activity comprising more than 50% of the cells
Method: as §2

[7] = test system: K562; assay: Hoechst 33342 nuclear staining (Table 3); assay type: cell-based, human; set-up: key: 0 relating to no activity; 1 relating to weak activity comprising less than 50% of the cells; score 2 relating to strong activity comprising more than 50% of the cells
Method: as §2

[8] = test system: Jurkat; assay: Hoechst 33342 nuclear staining (Table 3); assay type: cell-based, human; set-up: key: 0 relating to no activity; 1 relating to weak activity comprising less than 50% of the cells; score 2 relating to strong activity comprising more than 50% of the cells
Method: as §2

[9] = test system: Ramos; assay: Hoechst 33342 nuclear staining (Table 3); assay type: cell-based, human; set-up: key: 0 relating to no activity; 1 relating to weak activity comprising less than 50% of the cells; score 2 relating to strong activity comprising more than 50% of the cells
Method: as §2

[10] = test system: HeLa; assay: MTS proliferation assay; assay type: cell-based; details: Homo sapiens, 72 h incubation
Method: (§3) The assay is performed in 96 well tissue culture plates. The cells (range : 1.5*10^3-10^4) are seeded out in 80 µl complete medium 24 h prior to compound treatment. The test compounds are added in 20 µl complete medium containing max 5% DMSO. The final compound concentrations in the assays are 10 µM, 3 µM,1 µM and 0.3 µM, respectively. The assay plates are incubated for 72 h at culture conditions. The MTS reagent is prepared according to the manufacturer's protocol (Promega G1111 ). 20 µl MTS reagent are added to each well, the assay plates are quickly spun and incubated for another 3 h at culture conditions. Subsequently, the plates are shortly shaked and absorption measured with a microplate-reader at 492 nm.

[11] = test system: K562; assay: MTS proliferation assay; assay type: cell-based; details: Homo sapiens, K562, 72 h incubation
Method: as §3

[12] = test system: Jurkat; assay: MTS proliferation assay; assay type: cell-based; details: Homo sapiens, 72 h incubation
Method: as §3

With `CC1(C)Cc2ccccc2-c2c(C(=O)C(F)(F)F)c3nc4ccccc4nc3n21` [No. 4, 1-(6,6-Dimethyl-5,6-dihydro-6a,7,12-triaza-dibenzo[a,h]fluoren-13-yl)-2,2,2-trifluoro-ethanone] the “percentage of positively stained cells (AnnexinV/7-AAD staining)” value (“percentage of positively stained cells” for short) [1] was 1 (score 1 relates to more than 10% but less than 50%), the “percentage of positively stained cells” value [2] was 2 (score 2 relates to more than 50% positivity) and the “percentage of positively stained cells” value [3] was 2 (score 2 relates to more than 50% positivity). The “percentage of positively stained cells” value [4] was 1 (score 1 relates to more than 10% but less than 50%), the “Hoechst 33342 nuclear staining” value ([5]; 24h, conc 0.3 (µM)) was 0 and the “Hoechst 33342 nuclear staining” value ([5]; 24h, conc 1 (µM)) was 0. The “Hoechst 33342 nuclear staining” value ([5]; 24h, conc 3 (µM)) was 0, the “Hoechst 33342 nuclear staining” value ([5]; 24h, conc 10 (µM)) was 2 (score 2 relating to strong activity comprising more than 50% of the cells) and the “Hoechst 33342 nuclear staining” value ([5]; 48h, conc 0.3 (µM)) was 0. The “Hoechst 33342 nuclear staining” value ([5]; 48h, conc 1 (µM)) was 0, the “Hoechst 33342 nuclear staining” value ([5]; 48h, conc 3 (µM)) was 2 (score 2 relating to strong activity comprising more than 50% of the cells) and the “Hoechst 33342 nuclear staining” value ([5]; 48h, conc 10 (µM)) was 2 (score 2 relating to strong activity comprising more than 50% of the cells). The “Hoechst 33342 nuclear staining” value ([6]; 24h, conc 0.3 (µM)) was 0, the “Hoechst 33342 nuclear staining” value ([6]; 24h, conc 1 (µM)) was 0 and the “Hoechst 33342 nuclear staining” value ([6]; 24h, conc 3 (µM)) was 0. The “Hoechst 33342 nuclear staining” value ([6]; 24h, conc 10 (µM)) was 2 (score 2 relating to strong activity comprising more than 50% of the cells), the “Hoechst 33342 nuclear staining” value ([6]; 48h, conc 0.3 (µM)) was 0 and the “Hoechst 33342 nuclear staining” value ([6]; 48h, conc 1 (µM)) was 0. For the same compound, the “Hoechst 33342 nuclear staining” value ([6]; 48h, conc 3 (µM)) was 2 (score 2 relating to strong activity comprising more than 50% of the cells), the “Hoechst 33342 nuclear staining” value ([6]; 48h, conc 10 (µM)) was 2 (score 2 relating to strong activity comprising more than 50% of the cells) and the “Hoechst 33342 nuclear staining” value ([7]; K562, 24h, conc 0.3 (µM)) was 0. The “Hoechst 33342 nuclear staining” value ([7]; K562, 24h, conc 1 (µM)) was 1 (1 relating to weak activity comprising less than 50% of the cells), the “Hoechst 33342 nuclear staining” value ([7]; K562, 24h, conc 3 (µM)) was 2 (score 2 relating to strong activity comprising more than 50% of the cells) and the “Hoechst 33342 nuclear staining” value ([7]; K562, 24h, conc 10 (µM)) was 2 (score 2 relating to strong activity comprising more than 50% of the cells). The “Hoechst 33342 nuclear staining” value ([7]; K562, 48h, conc 0.3 (µM)) was 0, the “Hoechst 33342 nuclear staining” value ([7]; K562, 48h, conc 1 (µM)) was 2 (score 2 relating to strong activity comprising more than 50% of the cells) and the “Hoechst 33342 nuclear staining” value ([7]; K562, 48h, conc 3 (µM)) was 2 (score 2 relating to strong activity comprising more than 50% of the cells). For the same compound, the “Hoechst 33342 nuclear staining” value ([7]; K562, 48h, conc 10 (µM)) was 2 (score 2 relating to strong activity comprising more than 50% of the cells), the “Hoechst 33342 nuclear staining” value ([8]; 24h, conc 0.3 (µM)) was 0 and the “Hoechst 33342 nuclear staining” value ([8]; 24h, conc 1 (µM)) was 0. The “Hoechst 33342 nuclear staining” value ([8]; 24h, conc 3 (µM)) was 2 (score 2 relating to strong activity comprising more than 50% of the cells), the “Hoechst 33342 nuclear staining” value ([8]; 24h, conc 10 (µM)) was 2 (score 2 relating to strong activity comprising more than 50% of the cells) and the “Hoechst 33342 nuclear staining” value ([8]; 48h, conc 0.3 (µM)) was 0. The “Hoechst 33342 nuclear staining” value ([8]; 48h, conc 1 (µM)) was 2 (score 2 relating to strong activity comprising more than 50% of the cells), the “Hoechst 33342 nuclear staining” value ([8]; 48h, conc 3 (µM)) was 2 (score 2 relating to strong activity comprising more than 50% of the cells) and the “Hoechst 33342 nuclear staining” value ([8]; 48h, conc 10 (µM)) was 2 (score 2 relating to strong activity comprising more than 50% of the cells). The “Hoechst 33342 nuclear staining” value ([9]; 24h, conc 0.3 (µM)) was 1 (1 relating to weak activity comprising less than 50% of the cells), the “Hoechst 33342 nuclear staining” value ([9]; 24h, conc 1 (µM)) was 2 (score 2 relating to strong activity comprising more than 50% of the cells) and the “Hoechst 33342 nuclear staining” value ([9]; 24h, conc 3 (µM)) was 2 (score 2 relating to strong activity comprising more than 50% of the cells). The “Hoechst 33342 nuclear staining” value ([9]; 24h, conc 10 (µM)) was 2 (score 2 relating to strong activity comprising more than 50% of the cells), the “Hoechst 33342 nuclear staining” value ([9]; 48h, conc 0.3 (µM)) was 1 (1 relating to weak activity comprising less than 50% of the cells) and the “Hoechst 33342 nuclear staining” value ([9]; 48h, conc 1 (µM)) was 2 (score 2 relating to strong activity comprising more than 50% of the cells). For the same compound, the “Hoechst 33342 nuclear staining” value ([9]; 48h, conc 3 (µM)) was 2 (score 2 relating to strong activity comprising more than 50% of the cells), the “Hoechst 33342 nuclear staining” value ([9]; 48h, conc 10 (µM)) was 2 (score 2 relating to strong activity comprising more than 50% of the cells) and the IC50 [10] was over 10 µM. The IC50 [11] was over 10 µM and the IC50 [12] was over 10 µM.

Source: patent EP1433789A1, “Pyrrolopyrazines and their use as selective apoptosis inducers” (Aponetics AG, priority 2002, dated 2004)
